According to PMC5924706 (ACS chemical neuroscience, 2017):
Where two headings read alike, the source gives them in different places.

Key:
GluN2C/2D over GluN2A/2B = conditions: cited from earlier work
GluN1/GluN2D receptors = GluN1/GluN2D receptors (Rattus norvegicus, UniProt Q62645); conditions: for agonist pEC50 at GluN1/GluN2D: mean (95% CI); for EC50: read-out: agonist EC50 at GluN1/GluN2D
[1] = test system: GluN2C-expressing cultured rat cortical neurons; assay: Agonist-evoked NMDAR currents in transfected cultured cortical neurons; conditions: 20 μM compound; NMDA and glycine pressure pulses
[2] = test system: cultured rat cortical neurons transfected with GFP alone; assay: as above; conditions: 20 μM compound; NMDA and glycine pressure pulses

Sequence of GluN1/GluN2D receptors (Q62645 28-1323, other chains not shown): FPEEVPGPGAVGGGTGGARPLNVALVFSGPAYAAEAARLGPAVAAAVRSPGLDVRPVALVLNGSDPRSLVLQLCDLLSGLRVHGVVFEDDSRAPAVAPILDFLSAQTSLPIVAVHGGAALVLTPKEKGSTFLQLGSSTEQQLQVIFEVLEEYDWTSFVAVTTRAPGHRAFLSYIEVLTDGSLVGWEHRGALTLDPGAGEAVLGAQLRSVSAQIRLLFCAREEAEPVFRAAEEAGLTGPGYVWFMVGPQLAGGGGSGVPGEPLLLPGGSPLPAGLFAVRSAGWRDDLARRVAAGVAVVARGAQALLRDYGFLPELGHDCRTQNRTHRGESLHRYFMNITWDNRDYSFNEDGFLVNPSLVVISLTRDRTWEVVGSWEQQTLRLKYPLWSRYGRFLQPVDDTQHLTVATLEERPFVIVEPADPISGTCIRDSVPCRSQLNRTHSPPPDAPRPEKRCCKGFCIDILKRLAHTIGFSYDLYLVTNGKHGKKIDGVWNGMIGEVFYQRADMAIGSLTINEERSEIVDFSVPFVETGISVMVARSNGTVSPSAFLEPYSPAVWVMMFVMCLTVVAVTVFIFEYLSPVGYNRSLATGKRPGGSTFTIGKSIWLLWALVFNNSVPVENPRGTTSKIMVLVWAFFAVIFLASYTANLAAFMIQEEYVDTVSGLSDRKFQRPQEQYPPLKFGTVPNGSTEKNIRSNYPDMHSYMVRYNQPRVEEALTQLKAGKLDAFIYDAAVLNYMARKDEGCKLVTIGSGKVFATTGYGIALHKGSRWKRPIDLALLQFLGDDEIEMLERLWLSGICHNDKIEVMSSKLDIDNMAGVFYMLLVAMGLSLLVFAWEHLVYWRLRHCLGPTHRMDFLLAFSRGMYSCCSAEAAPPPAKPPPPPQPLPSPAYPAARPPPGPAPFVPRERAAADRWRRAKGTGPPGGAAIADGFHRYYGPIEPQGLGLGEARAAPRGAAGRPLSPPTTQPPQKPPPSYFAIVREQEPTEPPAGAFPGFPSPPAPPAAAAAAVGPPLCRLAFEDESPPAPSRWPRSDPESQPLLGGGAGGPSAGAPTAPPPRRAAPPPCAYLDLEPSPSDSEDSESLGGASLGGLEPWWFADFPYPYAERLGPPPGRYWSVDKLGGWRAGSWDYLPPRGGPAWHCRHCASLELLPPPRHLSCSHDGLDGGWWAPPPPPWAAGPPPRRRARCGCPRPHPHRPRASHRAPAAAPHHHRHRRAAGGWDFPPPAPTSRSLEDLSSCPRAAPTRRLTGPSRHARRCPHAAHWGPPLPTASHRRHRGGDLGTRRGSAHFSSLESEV

COc1ccc2nc(/C=C/c3cccc([N+](=O)[O-])c3)n(-c3ccc(C(=O)O)cc3)c(=O)c2c1 [QNZ46]
selectivity for GluN2C/2D over GluN2A/2B (GluN2C/2D over GluN2A/2B): up to 50 fold

N[C@@H](CCC(=O)O)C(=O)O [glutamate]
agonist pEC50 at GluN1/GluN2D (GluN1/GluN2D receptors; absence of NAB-14): −6.22 (−6.29, −6.14)
agonist pEC50 at GluN1/GluN2D (GluN1/GluN2D receptors; presence of 3 μM NAB-14): −6.15 (−6.36, −5.93)
EC50 (GluN1/GluN2D receptors; absence of NAB-14): 610 nM
EC50 (GluN1/GluN2D receptors; presence of 3 μM NAB-14): 710 nM

Cc1ccc2[nH]c(=O)c(C3=NN(C(=O)CCC(=O)O)C(c4ccc(Br)cc4)C3)c(-c3ccccc3)c2c1 (centres unmarked) [DQP-1105]
selectivity for GluN2C/2D over GluN2A/2B (GluN2C/2D over GluN2A/2B): up to 50 fold

COc1ccc(OCC2c3cc(OC)c(OC)cc3CCN2C(=O)c2cccc(Cl)c2)cc1 (centres unmarked) [CIQ]
agonist-evoked response, % of control, GluN2C-expressing neurons [1]: 145 ± 5.9%
agonist-evoked response, % of control, neurons transfected with GFP alone [2]: 98 ± 1.8%
